From article PMC4585962, “A peptide factor secreted by Staphylococcus pseudintermedius exhibits properties of both bacteriocins and virulence factors” (Scientific Reports, 2015)
No end group written: not given here. *: point of attachment. For = O=C*

Legend:
S. aureus RN4220 (pCN68) = test: GFP release assay; format: cell-based, Staphylococcus aureus; conditions: 2 × 10^6 CFU in PBS, 1 h 37 °C, 0.23 to 15 μM BacSp222, fluorescence of supernatant 480/510 nm
Protocol: The bacteria transformed with GFP-encoding plasmids (pCN68[59] for S. aureus RN4220; pALCP2G[60] for B. subtilis 1A751[61] and E. coli DH5α) were grown overnight in TSB supplemented with appropriate antibiotics, washed twice and finally suspended in PBS. Fifty microliters of the suspensions containing 2 × 10^6 CFU of bacteria were then incubated for 1 h at 37 °C with serial dilutions of BacSp222 at concentrations ranging from 0.23 to 15 μM. Then, the bacteria were spun down, and the fluorescence in the supernatant was determined (Synergy H1 microplate reader, BioTek, 480/510 nm excitation/emission wavelengths). As the controls for 100% GFP release, S. aureus and B. subtilis were lysed using lysostaphin and chicken egg white lysozyme (Sigma), respectively, whereas the E. coli cells were disrupted by ultrasonication.

HSF cells = test: Cell membrane integrity, propidium iodide / FDA fluorescence microscopy; format: cell-based, human; conditions: media contained 0.5 or 15 μM BacSp222 (concentration of these values not stated), three independent experiments ± SD
[1] = tested on: adipose-derived stem cells (ASC); test: Cytotoxicity, LDH and MTT assays; format: cell-based; conditions: 4 h exposure, said to be similar to the other cell types (Fig. S7)
Protocol: Human skin fibroblasts (HSF, ATCC CRL-2522), adipose-derived stem cells (ASCs, ATCC PCS-500-011), and HeLa human epithelioid cervix carcinoma cells (ATCC CCL-2) were maintained in Dulbecco’s modified Eagle’s medium (DMEM, Sigma) containing 1 g/l glucose, 10% (v/v) foetal bovine serum (FBS), 1 U/ml penicillin, 1 μg/ml streptomycin, and 2.5 μg/ml amphotericin B. Murine P388/D1 monocyte/macrophage cells (ATCC CCL-46) and murine RAW264.7 macrophage-like cells (ATCC TIB-71) were cultured in DMEM containing 4.5 g/l glucose, 5% (v/v) FBS, and antibiotics, as indicated above. Keratinocytes from human skin were grown in KBM Gold Medium (Lonza). All cells were incubated in standard conditions (5% CO2, 37 °C, >95% humidity). […] After a 30-min incubation (RT, in the dark), the reaction was stopped, and the absorbance was measured with a microplate reader (PowerWave X, BioTek Instruments) at 490 nm, followed by subtraction of the absorbance reference value at 690 nm. […] The absorbance of solubilized purple formazan was measured at 540 nm, followed by subtraction of the absorbance reference value at 690 nm. […] The amount of released haemoglobin was spectrophotometrically determined at 540 nm and compared with a positive control (erythrocytes lysed with 1% sodium dodecyl sulphate).

Substance: For-MAGLLRFLLSKGRALYNWAKSHVGKVWEWLKSGATYEQIKEWIENALGWR [BacSp222]
- leakage of GFP from recombinant cells (S. aureus RN4220 (pCN68)): dose-dependent leakage of GFP was observed
- PI-positive cells (HSF cells; 0.5 hours of incubation): 39 ± 13.5%
- PI-positive cells (HSF cells; 2 hours of incubation): 74 ± 6.7%
- PI-positive cells (HSF cells; 4 hours of incubation): 97 ± 3.7%
- cytotoxic effect [1]: sigmoidal, dose-dependent cytotoxic effect
